Measurements as given in PubChem BioAssay (NCI).
“And” between values parts separate entries of the source, which are not always exact repeats. Equal entries are not always repeated.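 Interpolation was linear, between the two tested concentrations surrounding the appropriate level; five concentrations were tested over 48 hours in 96-well plates. The concentration for 50% growth inhibition is given as GI50. TGI: total growth inhibition.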

What was measured:
Assay in all cases: inhibition of tumour cell growth, NCI panel, 48 h
SF-295 CNS = system: SF-295 CNS
A498 renal = system: A498 renal
OVCAR-4 ovarian = system: OVCAR-4 ovarian
NCI-H522 lung = system: NCI-H522 lung
SK-MEL-2 melanoma = system: SK-MEL-2 melanoma
A549 NSCLC = system: A549 NSCLC
UACC-62 melanoma = system: UACC-62 melanoma
U251 CNS = system: U251 CNS
HCT-15 colon = system: HCT-15 colon
HT29 colon = system: HT29 colon

| Compound | GI50 (SF-295 CNS) | TGI (SF-295 CNS) | GI50 (A498 renal) | TGI (A498 renal) | GI50 (OVCAR-4 ovarian) | TGI (OVCAR-4 ovarian) | GI50 (NCI-H522 lung) | TGI (NCI-H522 lung) | TGI (SK-MEL-2 melanoma) | TGI (A549 NSCLC) | GI50 (UACC-62 melanoma) | TGI (UACC-62 melanoma) | TGI (U251 CNS) | GI50 (HCT-15 colon) | TGI (HT29 colon) [µM] | TGI (HCT-15 colon) [µM] | GI50 (SK-MEL-2 melanoma) [µM] | GI50 (A549 NSCLC) [µM] | GI50 (HT29 colon) [µM] | GI50 (U251 CNS) [µM] |
| --- | --- | --- | --- | --- | --- | --- | --- | --- | --- | --- | --- | --- | --- | --- | --- | --- | --- | --- | --- | --- |
| CN(C)CC1CCCC(CN(C)C)C1=O (stereo not drawn) | 19.3 µM and > 100 µM | 35.7 µM and > 100 µM | 19.1 µM and > 100 µM | 34.5 µM and > 100 µM | 1.89 µM and 7.01 µM | 3.51 µM and 18.5 µM | 0.179 µM and 1.06 µM | 0.443 µM and 3.46 µM | 20.6 µM and 35.2 µM | 48.1 µM and > 63.6 µM | 8.32 µM and 18 µM | 18.3 µM and 33.4 µM | 23 µM and 34.6 µM | 1.28 µM and 8.54 µM |  |  |  |  |  |  |
| COc1ccc(C(=O)Nc2ccccc2)cc1[N+](=O)[O-] |  | > 100 µM |  | > 100 µM |  |  |  | > 100 µM | > 100 µM | > 100 µM |  | > 100 µM | > 100 µM |  | > 100 | > 100 |  |  |  |  |
| COc1ccccc1NS(=O)(=O)c1cc(C(C)(C)C)ccc1OCCOc1ccc(C(C)(C)C)cc1S(=O)(=O)Nc1ccccc1OC |  | > 100 µM |  | > 100 µM |  | > 100 µM |  |  | > 100 µM | > 100 µM |  | > 100 µM | > 100 µM |  | > 100 | > 100 |  |  |  |  |
| Cc1nc(N=C(N)N)nc2ccc3ccccc3c12 | 1.03 µM | 4.43 µM | 1.54 µM | 3.23 µM | 1.44 µM | 5.1 µM | 1.04 µM | 2.5 µM | 3.37 µM | 7.24 µM |  |  | 2.29 µM | 2.99 µM | 4.96 | 14.1 | 1.72 | 1.95 | 1.95 | 0.676 |
| COc1ccc(C(=O)Nc2ccccc2C#N)cc1 |  | > 100 µM |  | > 100 µM |  | > 100 µM |  |  | > 100 µM | > 100 µM |  | > 100 µM | > 100 µM |  | > 100 | > 100 |  |  |  |  |
| CC1(C)CC[C@]2(C(=O)O)CCC3(C)C(=CCC4[C@@]5(C)CC[C@H](OC6OCC(O)C(O)C6OC6OC(CO)C(O)C(O)C6O)C(C)(C)C5CC[C@]43C)C2C1 (stereo partly drawn) |  | 3.42 µM |  | 4.09 µM |  | 3.05 µM |  |  |  | 3.53 µM |  | 3.42 µM | 3.4 µM |  | 5.23 | 4.38 |  |  |  |  |
| C[C@@H](Oc1cc(-n2cnc3ccc(OCC4CCN(C)CC4)cc32)sc1C(N)=O)c1ccccc1C(F)(F)F | 0.138 µM | 3.39 µM | 0.295 µM | 1.56 µM | 0.699 µM | 4.69 µM | 0.0472 µM | 0.236 µM |  | 2.7 µM | 0.0964 µM | 3.02 µM | 3.4 µM | 0.126 µM | 2.63 | 3.2 |  | 0.131 | 0.0721 | 0.11 |
| Fc1cccc(C=NC23CC4CC(CC(C4)C2)C3)c1 |  | > 100 µM |  | > 100 µM |  | > 100 µM |  | > 100 µM | > 100 µM |  |  | > 100 µM | > 100 µM |  | > 100 | > 100 |  |  |  |  |
| Clc1ccc(C2=NN(c3ccccc3)C3c4cc(Br)ccc4OCC23)cc1 (stereo not drawn) |  | > 100 µM |  | > 100 µM |  |  |  | > 100 µM | > 100 µM | > 100 µM |  |  | > 100 µM |  | > 100 |  |  |  |  |  |
| Cc1ccc(NC(=O)CCC(=O)C2CC(=O)CCC2=O)cc1C (stereo not drawn) |  | > 100 µM |  |  |  | > 100 µM |  |  | > 100 µM | > 100 µM |  | > 100 µM | > 100 µM |  | > 100 | > 100 |  |  |  |  |
| CN(C)c1ccc(N=C(C#N)c2nc(N)nc(N3CCOCC3)n2)cc1 | 15.9 µM | 31.3 µM |  |  | 46.6 µM | > 100 µM | 26.5 µM | > 100 µM | > 100 µM | > 100 µM | 46.3 µM | > 100 µM | > 100 µM | 52.9 µM | > 100 | > 100 | > 100 | 38.8 | 67.5 | 32.9 |
| CCOC(=O)C12CN(C34CC5CC(CC(C5)C3)C4)CC(C(=O)OCC)(C1=O)C(c1ccccc1)OC2c1ccccc1 (stereo not drawn) |  | > 100 µM |  | > 100 µM |  | > 100 µM |  |  | > 100 µM | > 100 µM |  | > 100 µM | > 100 µM |  | > 100 | > 100 |  |  |  |  |
| COC(=O)C1(C)CCc2c(ccc3ccccc23)C1=O (stereo not drawn) |  | > 100 µM |  | 81 µM |  |  |  | 57.3 µM | 64.8 µM | > 100 µM |  | 98.1 µM | > 100 µM |  | > 100 | > 100 |  |  |  |  |
| Cc1cc(C)c2c(c1C)CN1CN2Cc2c(C)c(C)cc(C)c21 |  | > 100 µM |  |  |  | > 100 µM |  | > 100 µM |  | > 100 µM |  | > 100 µM | > 100 µM |  | > 100 | > 100 |  |  |  |  |
| CC/C(=C(/CC)c1ccc(OP(=O)([O-])[O-])cc1)c1ccc(OP(=O)([O-])[O-])cc1.N.N.N.N.[Pt+4].[Pt+4] | 1.91 µM | 12.2 µM | 27.5 µM | 61.1 µM | 1.95 µM | 7.54 µM |  |  | > 100 µM | 8.43 µM | 0.901 µM | 5.15 µM | 2.12 µM | 11.8 µM | 90.3 | 45.4 | 13.1 | 2.45 | 16.9 | 0.594 |
| COC(=O)[C@@]12C3=NO[C@]1(C(=O)OC)C(O[Si](C)(C)C(C)(C)C)C1OC(C)(C)OC1[C@@H]2[C@@H](OCc1ccccc1)CC3 (stereo partly drawn) |  | > 100 µM |  | > 100 µM |  | > 100 µM |  |  | > 100 µM | > 100 µM |  | > 100 µM | > 100 µM |  | > 100 | > 100 |  |  |  |  |
| C=C1C(=O)C23C(O)C1CCC2C12CO[C@]3(O)[C@@H](O)C1C(C)(C)CCC2O (stereo partly drawn) |  | 30.6 µM |  | 36.5 µM |  |  |  | 2.15 µM | 30.2 µM | 34.6 µM |  | 26.4 µM | 32.2 µM |  | 30.3 | 26.4 |  |  |  |  |
| CCOC(=O)c1c(-c2ccccc2)[nH]c2ccccc2c1=O |  | > 100 µM |  | > 100 µM |  | > 100 µM |  |  |  | > 100 µM |  |  | > 100 µM |  | > 100 | > 100 |  |  |  |  |
| CC1=C(C(=O)Nc2cc(F)c(F)cc2F)C(c2cccc([N+](=O)[O-])c2)C(C(=O)Nc2ccccc2C(F)(F)F)=C(C)N1 (stereo not drawn) |  | 48.8 µM |  | 45 µM |  | 66.1 µM |  | 34.7 µM | 42.1 µM | > 100 µM |  |  | 53.1 µM |  | 62.8 |  |  |  |  |  |
| Cc1ccc(C)c(NC(=O)CCC(=O)CC(=O)C(C)(C)C)c1 |  |  |  | > 100 µM |  | > 100 µM |  | > 100 µM | > 100 µM | > 100 µM |  | > 100 µM | > 100 µM |  | > 100 | > 100 |  |  |  |  |
